Test systems include T-47D breast; HL-60(TB) leukemia; BT-549 breast; DU-145 prostate; PC-3 prostate; MDA-MB-231 breast; NCI-H226 lung; SF-539 CNS; M14 melanoma; A549 NSCLC.
Holding throughout (test): NCI-60 cell line screen, 48 h

In PubChem BioAssay (NCI) one finds TGI and GI50 data, which are given here for 13 compounds.

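Grown in 96-well plates, cells were treated for 48 hours with each compound at five concentrations. Insufficient inhibition: endpoint recorded as highest concentration tested. GI50 = concentration required for 50% inhibition of growth. At the TGI there is no net growth.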

In the case of `CCCO[C@@H]1[C@@H](OC(C)=O)[C@@H](OC(C)=O)C(C)(C)/C=C/[C@H](C)C(=O)[C@@]2(OC(C)=O)C[C@@](C)(OC(C)=O)[C@H](OC(C)=O)[C@@H]2[C@H]2OC(=O)CC[C@@]12OC(=O)c1ccccc1`, the TGI in the experiment on T-47D breast, in the experiment with HL-60(TB) leukemia, with BT-549 breast, in the experiment on DU-145 prostate, with PC-3 prostate and in the experiment with MDA-MB-231 breast was greater than 25 µM each time. Moreover, the TGI in the experiment on NCI-H226 lung, in the experiment with SF-539 CNS and with M14 melanoma was greater than 25 µM each time.
In the case of `C(=Nc1ccc2c(c1)Cc1ccccc1-2)c1ccccn1`, the TGI in the experiment on A549 NSCLC, in the experiment with T-47D breast, with BT-549 breast, with DU-145 prostate, in the experiment with PC-3 prostate and with MDA-MB-231 breast was greater than 100 µM each time. The TGI in the experiment on NCI-H226 lung and with M14 melanoma was greater than 100 µM each time.
For the compound `COc1ccc2c(c1)c(-c1nc(-c3c[nH]c4ncccc34)cs1)cn2CCCCN1CCCCC1`, the GI50 in the experiment with HL-60(TB) leukemia is 1.72 µM; in the experiment on BT-549 breast it was 1.66 µM; in the experiment on DU-145 prostate, 1.73 µM; in the experiment with PC-3 prostate it was 1.52 µM; in the experiment on MDA-MB-231 breast it was 1.61 µM. In addition, the TGI in the experiment with HL-60(TB) leukemia is 3.54 µM; in the experiment on BT-549 breast, 3.13 µM; in the experiment on DU-145 prostate, 3.22 µM; with PC-3 prostate it was 2.93 µM; in the experiment with MDA-MB-231 breast it was 3.08 µM.
`COc1ccc(/C=N/n2cnc3c(c2=O)SC(=C(C#N)C#N)N3c2ccccc2)cc1`: the TGI in the experiment on A549 NSCLC, in the experiment with HL-60(TB) leukemia, in the experiment on NCI-H226 lung and in the experiment on SF-539 CNS was greater than 100 µM in each case.
`CCC(=O)OCN(C)c1nc(N(C)COC(=O)CC)nc(N(C)COC(=O)CC)n1`: the TGI in the experiment with T-47D breast, in the experiment on BT-549 breast, with DU-145 prostate, with PC-3 prostate, with MDA-MB-231 breast and in the experiment on NCI-H226 lung was greater than 100 µM in each case. In addition, the TGI in the experiment on M14 melanoma amounted to 77.3 µM.
Consider `O=C1c2ccccc2OCC12OC21C=CC(Cl)=CC1` (stereo not drawn), for which the TGI in the experiment with A549 NSCLC is 56.6 µM; with HL-60(TB) leukemia, 37.3 µM; with BT-549 breast, 83.7 µM; in the experiment on DU-145 prostate it was 38.6 µM; in the experiment on PC-3 prostate it was greater than 100 µM; in the experiment on MDA-MB-231 breast it was 50.9 µM. Moreover, the TGI in the experiment with NCI-H226 lung, with SF-539 CNS and in the experiment on M14 melanoma was greater than 100 µM in each case.
As to `CCCCC1C=Cn2c(=O)oc3c(OC(C)C)c(C)c(O)c1c32` (stereo not drawn), the TGI with A549 NSCLC amounted to 6.97 µM; in the experiment with T-47D breast it was 5.93 µM; with HL-60(TB) leukemia, 1.88 µM; with BT-549 breast it was 13.4 µM; with DU-145 prostate it was 5.5 µM; in the experiment with PC-3 prostate, 14.2 µM. The TGI in the experiment with MDA-MB-231 breast was determined as 4.87 µM; with NCI-H226 lung, 8.12 µM; in the experiment with SF-539 CNS, 19.2 µM; with M14 melanoma, 3.15 µM.
As for `Nc1nc(SCc2ccccc2Cl)c2[nH]cnc2n1`, the TGI in the experiment on A549 NSCLC, in the experiment on HL-60(TB) leukemia, in the experiment on SF-539 CNS and in the experiment with M14 melanoma was greater than 100 µM in each case.
On to `CCOC(=O)c1sc2nc(SC)nc(Nc3ccc4c(c3)OCCO4)c2c1N`, for which the TGI is greater than 100 µM in the experiment on A549 NSCLC; 26.2 µM in the experiment with T-47D breast; greater than 100 µM in the experiment with HL-60(TB) leukemia; 32 µM in the experiment with BT-549 breast; 33.5 µM in the experiment with DU-145 prostate; 29.7 µM in the experiment with PC-3 prostate. For the same compound, the TGI with MDA-MB-231 breast was 25.9 µM; with NCI-H226 lung, greater than 100 µM; in the experiment on SF-539 CNS, 18.2 µM; with M14 melanoma, 31.7 µM.
For `O=C(CBr)c1ccc2cc(Br)c3ccccc3c2c1`, the TGI in the experiment with A549 NSCLC was determined as 76.7 µM; in the experiment on HL-60(TB) leukemia, 69.6 µM; with BT-549 breast, 34 µM; in the experiment on DU-145 prostate, 46.4 µM; with PC-3 prostate it was 53.1 µM; in the experiment on MDA-MB-231 breast it was 51.2 µM. In addition, the TGI with NCI-H226 lung came out at 33.6 µM; in the experiment on SF-539 CNS it was 41.7 µM; in the experiment with M14 melanoma it was 84 µM.
In the case of `C=CCCC1(C)CCCNC1=S` (stereo not drawn), the TGI in the experiment with A549 NSCLC, in the experiment with HL-60(TB) leukemia, in the experiment with NCI-H226 lung, in the experiment on SF-539 CNS and with M14 melanoma was greater than 100 µM each time.
Regarding `CCCn1cnc2c(SCc3ccc(Cl)cc3)nc(N)nc21`, the TGI is greater than 100 µM in the experiment on A549 NSCLC; greater than 100 µM in the experiment on T-47D breast; 48.7 µM with HL-60(TB) leukemia; greater than 100 µM with BT-549 breast; greater than 100 µM in the experiment with DU-145 prostate; 57.8 µM in the experiment on PC-3 prostate. Besides, the TGI with MDA-MB-231 breast came out at 60.1 µM; in the experiment on M14 melanoma, 81.5 µM.
Take `O=C(N[C@@H](Cc1coc2ccccc12)B(O)O)[C@@H]1C[C@H]2CC[C@@H]1O2`: the GI50 was 7.58 µM with A549 NSCLC; 2.77 µM with T-47D breast; 3.05 µM with HL-60(TB) leukemia; 3.07 µM in the experiment with BT-549 breast; 7.5 µM in the experiment with DU-145 prostate; 41.2 µM in the experiment on PC-3 prostate. In addition, the GI50 in the experiment on MDA-MB-231 breast is 11.7 µM; in the experiment with NCI-H226 lung, 1.13 µM; with SF-539 CNS it was 1.72 µM; with M14 melanoma it was 3.01 µM. In addition, the TGI was greater than 100 µM in the experiment with A549 NSCLC; greater than 100 µM in the experiment with T-47D breast; greater than 100 µM in the experiment with HL-60(TB) leukemia; 42.2 µM with BT-549 breast; greater than 100 µM in the experiment on DU-145 prostate; greater than 100 µM with PC-3 prostate. Besides, the TGI in the experiment with MDA-MB-231 breast is greater than 100 µM; with NCI-H226 lung, 2.76 µM; in the experiment on SF-539 CNS, 6.12 µM; in the experiment with M14 melanoma, 82.7 µM.
